Series [1] concerns NHDF. Briefly: Cytoprotective activity against human HDF cells assessed as increase in cell viability at 10 uM incubated for 24 hrs by MTT assay. Format: functional. For orientation: Tetrazolium dyes change colour on reduction, which living cells bring about.
Series [2] deals with NHDF. Briefly: Cytotoxicity against human HDF cells assessed as reduction in cell viability at 10 uM incubated for 24 hrs by MTT assay. Format: toxicity, cell-based.
Series [3] has as its system NHDF. Put plainly: Cytoprotective activity against UV-B irradiation induced human HDF cells assessed as increase in cell viability at 25 uM incubated for 24 hrs by MTT assay. Format: functional.
The test system of series [4] is NHDF. Briefly: Antiapoptotic activity in UV-B irradiation induced human HDF cells assessed as upregulation of catalase expression level at 10 to 25 uM incubated for 24 hrs by western blot analysis. Format: functional, cell-based. Conditions: dose 10-25 µM.
Series [5] relates to NHDF. Put plainly: Antiapoptotic activity in UV-B irradiation induced human HDF cells assessed as upregulation of procollagen-1 expression level at 10 to 25 uM incubated for 24 hrs by western blot analysis. Conditions: dose 10-25 µM. Format: functional, cell-based. On the technique in general: Immunoblotting shows a protein as a band on a membrane.
Series [6] relates to NHDF. Briefly: Cytoprotective activity against UV-B irradiation induced human HDF cells assessed as increase in cell viability at 10 uM incubated for 24 hrs by MTT assay. Format: functional.
For series [7], the system named is NHDF. Put plainly: Antiapoptotic activity in UV-B irradiation induced human HDF cells assessed as downregulation of MMP1 expression level at 10 to 25 uM incubated for 24 hrs by western blot analysis. Format: functional, cell-based. The settings on record: dose 10-25 µM.
In series [8] the test system is NHDF. Put plainly: Antiapoptotic activity in UV-B irradiation induced human HDF cells assessed as decrease in mitochondrial membrane potential loss at 10 to 25 uM incubated for 24 hrs by JC-9 staining fluorescence microscopy. Format: functional, cell-based. The settings on record: dose 10-25 µM, DDE = dose-dependent effect.
For series [9], the system named is NHDF. Briefly: Antioxidant activity in UV-B irradiation induced human HDF cells assessed as decrease in ROS level at 10 to 25 uM incubated for 6 hrs by fluorescence microscopy. Format: functional, cell-based. Conditions: dose 10-25 µM, DDE = dose-dependent effect.
Series [10] deals with NHDF. Briefly: Antiapoptotic activity in UV-B irradiation induced human HDF cells assessed as upregulation of catalase expression level at 50 uM incubated for 24 hrs by western blot analysis. Format: functional, cell-based.
The test system of series [11] is NHDF. Briefly: Antioxidant activity in UV-B irradiation induced human HDF cells assessed as decrease in ROS level at 25 uM incubated for 6 hrs by fluorescence microscopy. Format: functional, cell-based.

Calls of active or inactive are those of the source. No cut-off for these calls is given here.

In the case of `COc1ccc(/C=C2\C[C@]3(C)[C@H]4C(=O)C=C5[C@@H]6C[C@@](C)(C(=O)O)CC[C@]6(C)CC[C@@]5(C)[C@]4(C)CC[C@H]3C(C)(C)[C@H]2O)cc1`, in the series with NHDF [1], the Activity was 112.5%.

`CC1(C)[C@@H](O)/C(=C/c2ccc(Br)cc2)C[C@]2(C)[C@H]3C(=O)C=C4[C@@H]5C[C@@](C)(C(=O)O)CC[C@]5(C)CC[C@@]4(C)[C@]3(C)CC[C@@H]12`: in the series with NHDF [1], the Activity is recorded as 103.5%.

With `COc1ccc(/C=C2\C[C@]3(C)[C@H]4C(=O)C=C5[C@@H]6C[C@@](C)(C(=O)O)CC[C@]6(C)CC[C@@]5(C)[C@]4(C)CC[C@H]3C(C)(C)C2=O)c(Br)c1O`, in the series with NHDF [2], the Activity was determined as 10%.

Regarding `COc1ccc(/C=C2\C[C@]3(C)[C@H]4C(=O)C=C5[C@@H]6C[C@@](C)(C(=O)O)CC[C@]6(C)CC[C@@]5(C)[C@]4(C)CC[C@H]3C(C)(C)[C@H]2O)c(F)c1`, the Activity in the series with NHDF [3] is 19.5%; with NHDF [1], 106.7%; in the series with NHDF [6], 8.3%; in the series on NHDF [8], “Dde”; in the series on NHDF [9], “Dde”. Moreover, the result in the series with NHDF [4], in the series on NHDF [5] and in the series with NHDF [7] was Active.

As for `CC1(C)C(=O)/C(=C/c2ccncc2)C[C@]2(C)[C@H]3C(=O)C=C4[C@@H]5C[C@@](C)(C(=O)O)CC[C@]5(C)CC[C@@]4(C)[C@]3(C)CC[C@@H]12`, the Activity with NHDF [2] is on record as 8.3%.

`CCc1ccc(/C=C2\C[C@]3(C)[C@H]4C(=O)C=C5[C@@H]6C[C@@](C)(C(=O)O)CC[C@]6(C)CC[C@@]5(C)[C@]4(C)CC[C@H]3C(C)(C)[C@H]2O)cc1`: the Activity in the series with NHDF [1] is listed as 114.5%.

As for `Cc1ccc(/C=C2\C[C@]3(C)[C@H]4C(=O)C=C5[C@@H]6C[C@@](C)(C(=O)O)CC[C@]6(C)CC[C@@]5(C)[C@]4(C)CC[C@H]3C(C)(C)C2=O)cc1`, in the series on NHDF [2], the Activity is given as 30.5%.

Take `COc1cc(Br)c(/C=C2\C[C@]3(C)[C@H]4C(=O)C=C5[C@@H]6C[C@@](C)(C(=O)O)CC[C@]6(C)CC[C@@]5(C)[C@]4(C)CC[C@H]3C(C)(C)C2=O)cc1O`: the Activity amounted to 104.7% in the series with NHDF [1] and 3% in the series on NHDF [6].

Turning to `CC1(C)[C@@H](O)CC[C@]2(C)[C@H]3C(=O)C=C4[C@@H]5C[C@@](C)(C(=O)O)CC[C@]5(C)CC[C@@]4(C)[C@]3(C)CC[C@@H]12` [ENOXOLONE], the Activity in the series with NHDF [3] is 17%; in the series on NHDF [1] it was 106.4%; with NHDF [6], 1%.

In the case of `CC1(C)[C@@H](O)/C(=C/c2cccc3ccccc23)C[C@]2(C)[C@H]3C(=O)C=C4[C@@H]5C[C@@](C)(C(=O)O)CC[C@]5(C)CC[C@@]4(C)[C@]3(C)CC[C@@H]12`, the Activity in the series on NHDF [1] amounted to 110.1%.

Turning to `CC1(C)C(=O)/C(=C/c2ccc(Br)cc2)C[C@]2(C)[C@H]3C(=O)C=C4[C@@H]5C[C@@](C)(C(=O)O)CC[C@]5(C)CC[C@@]4(C)[C@]3(C)CC[C@@H]12`, the Activity with NHDF [2] came out at 17.5%.

Take `CSc1ccc(/C=C2\C[C@]3(C)[C@H]4C(=O)C=C5[C@@H]6C[C@@](C)(C(=O)O)CC[C@]6(C)CC[C@@]5(C)[C@]4(C)CC[C@H]3C(C)(C)C2=O)cc1`: in the series on NHDF [2], the Activity is 8.4%.

As to `COc1ccc(/C=C2\C[C@]3(C)[C@H]4C(=O)C=C5[C@@H]6C[C@@](C)(C(=O)O)CC[C@]6(C)CC[C@@]5(C)[C@]4(C)CC[C@H]3C(C)(C)C2=O)c(F)c1`, the Activity in the series with NHDF [2] is 19.1%.

In the case of `CCc1ccc(/C=C2\C[C@]3(C)[C@H]4C(=O)C=C5[C@@H]6C[C@@](C)(C(=O)O)CC[C@]6(C)CC[C@@]5(C)[C@]4(C)CC[C@H]3C(C)(C)C2=O)cc1`, the Activity in the series with NHDF [2] is 28.8%.

For the compound `Cc1ccc(/C=C2\C[C@]3(C)[C@H]4C(=O)C=C5[C@@H]6C[C@@](C)(C(=O)O)CC[C@]6(C)CC[C@@]5(C)[C@]4(C)CC[C@H]3C(C)(C)[C@H]2O)s1`, in the series with NHDF [1], the Activity turned out to be 101.1%.

For the compound `COc1ccc(/C=C2\C[C@]3(C)[C@H]4C(=O)C=C5[C@@H]6C[C@@](C)(C(=O)O)CC[C@]6(C)CC[C@@]5(C)[C@]4(C)CC[C@H]3C(C)(C)[C@H]2O)c(Br)c1O`, the Activity with NHDF [2] is reported as 20.2%.

In the case of `COc1ccc(/C=C2\C[C@]3(C)[C@H]4C(=O)C=C5[C@@H]6C[C@@](C)(C(=O)O)CC[C@]6(C)CC[C@@]5(C)[C@]4(C)CC[C@H]3C(C)(C)C2=O)cc1`, in the series with NHDF [2], the Activity stood at 11.5%.

With `CC1(C)C(=O)/C(=C/c2ccc(Cl)cc2)C[C@]2(C)[C@H]3C(=O)C=C4[C@@H]5C[C@@](C)(C(=O)O)CC[C@]5(C)CC[C@@]4(C)[C@]3(C)CC[C@@H]12`, the Activity with NHDF [1] worked out at 113.9%.

`CC1(C)C(=O)/C(=C/c2ccccc2)C[C@]2(C)[C@H]3C(=O)C=C4[C@@H]5C[C@@](C)(C(=O)O)CC[C@]5(C)CC[C@@]4(C)[C@]3(C)CC[C@@H]12`: the Activity with NHDF [2] stood at 11.5%.

For the compound `CC1(C)[C@@H](O[C@H]2O[C@H](C(=O)O)[C@@H](O)[C@H](O)[C@H]2O[C@@H]2O[C@H](C(=O)O)[C@@H](O)[C@H](O)[C@H]2O)CC[C@]2(C)[C@H]3C(=O)C=C4[C@@H]5C[C@@](C)(C(=O)O)CC[C@]5(C)CC[C@@]4(C)[C@]3(C)CC[C@@H]12`, the result in the series on NHDF [10] was Active.

For the compound `CCOc1cccc(/C=C2\C[C@]3(C)[C@H]4C(=O)C=C5[C@@H]6C[C@@](C)(C(=O)O)CC[C@]6(C)CC[C@@]5(C)[C@]4(C)CC[C@H]3C(C)(C)C2=O)c1`, the Activity with NHDF [2] came out at 35.7%.

Consider `O=C1O[C@H]([C@@H](O)CO)C(O)=C1O`, for which the result with NHDF [11] was Active.

As for `CC1(C)[C@@H](O)/C(=C/c2ccccc2)C[C@]2(C)[C@H]3C(=O)C=C4[C@@H]5C[C@@](C)(C(=O)O)CC[C@]5(C)CC[C@@]4(C)[C@]3(C)CC[C@@H]12`, the Activity with NHDF [2] is reported as 7.4%.

As to `COc1cc(Br)c(/C=C2\C[C@]3(C)[C@H]4C(=O)C=C5[C@@H]6C[C@@](C)(C(=O)O)CC[C@]6(C)CC[C@@]5(C)[C@]4(C)CC[C@H]3C(C)(C)[C@H]2O)cc1O`, the Activity with NHDF [2] stood at 10.3%.

Take `CC1(C)[C@@H](O)/C(=C/c2ccncc2)C[C@]2(C)[C@H]3C(=O)C=C4[C@@H]5C[C@@](C)(C(=O)O)CC[C@]5(C)CC[C@@]4(C)[C@]3(C)CC[C@@H]12`: the Activity with NHDF [2] turned out to be 3.2%.

`CCOc1cccc(/C=C2\C[C@]3(C)[C@H]4C(=O)C=C5[C@@H]6C[C@@](C)(C(=O)O)CC[C@]6(C)CC[C@@]5(C)[C@]4(C)CC[C@H]3C(C)(C)[C@H]2O)c1`: in the series on NHDF [1], the Activity worked out at 100.1%.

As for `COc1ccccc1/C=C1\C[C@]2(C)[C@H]3C(=O)C=C4[C@@H]5C[C@@](C)(C(=O)O)CC[C@]5(C)CC[C@@]4(C)[C@]3(C)CC[C@H]2C(C)(C)C1=O`, in the series on NHDF [2], the Activity amounted to 5.9%.

Regarding `CC1(C)C(=O)/C(=C/c2cccc(F)c2)C[C@]2(C)[C@H]3C(=O)C=C4[C@@H]5C[C@@](C)(C(=O)O)CC[C@]5(C)CC[C@@]4(C)[C@]3(C)CC[C@@H]12`, the Activity in the series with NHDF [2] was determined as 6.5%.

On to `CSc1ccc(/C=C2\C[C@]3(C)[C@H]4C(=O)C=C5[C@@H]6C[C@@](C)(C(=O)O)CC[C@]6(C)CC[C@@]5(C)[C@]4(C)CC[C@H]3C(C)(C)[C@H]2O)cc1`, for which the Activity in the series on NHDF [3] is listed as 12%; in the series on NHDF [1], 109.5%.

For `Cc1ccc(/C=C2\C[C@]3(C)[C@H]4C(=O)C=C5[C@@H]6C[C@@](C)(C(=O)O)CC[C@]6(C)CC[C@@]5(C)[C@]4(C)CC[C@H]3C(C)(C)C2=O)s1`, the Activity in the series with NHDF [2] is recorded as 12.2%.

For the compound `CC1(C)C(=O)/C(=C/c2cccc3ccccc23)C[C@]2(C)[C@H]3C(=O)C=C4[C@@H]5C[C@@](C)(C(=O)O)CC[C@]5(C)CC[C@@]4(C)[C@]3(C)CC[C@@H]12`, the Activity in the series with NHDF [2] amounted to 11.5%.

With `CC1(C)C(=O)CC[C@]2(C)[C@H]3C(=O)C=C4[C@@H]5C[C@@](C)(C(=O)O)CC[C@]5(C)CC[C@@]4(C)[C@]3(C)CC[C@@H]12`, in the series with NHDF [2], the Activity amounted to 5.2%.

For the compound `COc1ccccc1/C=C1\C[C@]2(C)[C@H]3C(=O)C=C4[C@@H]5C[C@@](C)(C(=O)O)CC[C@]5(C)CC[C@@]4(C)[C@]3(C)CC[C@H]2C(C)(C)[C@H]1O`, the Activity with NHDF [1] is listed as 114.5%; with NHDF [6], 6%.

Consider `CC1(C)[C@@H](O)/C(=C/c2cccc(F)c2)C[C@]2(C)[C@H]3C(=O)C=C4[C@@H]5C[C@@](C)(C(=O)O)CC[C@]5(C)CC[C@@]4(C)[C@]3(C)CC[C@@H]12`, for which the Activity in the series on NHDF [2] is reported as 4.4%.
